We go through 6 molecules from publication PMC4556714, “Drug Development in Conformational Diseases: A Novel Family of Chemical Chaperones that Bind and Stabilise Several Polymorphic Amyloid Structures” (PLoS ONE, 2015).

Experiment [1] concerns the target T1, Bovine serum albumin (BSA, fraction V) (Bos taurus, UniProt P02769).
T1 construct: gene ALB; mature native serum albumin, 585 residues, fraction V from Roche; heat/acid-induced amyloid aggregation
Description: ThT fluorescence, inhibition of BSA amyloid aggregation. The class given is biochemical.

Experiment [2] has as its target T1, Bovine serum albumin (BSA, fraction V). Description: ThT fluorescence, BSA fibrillation at […]. The class given is biochemical. As to conditions: BSA 100 μmol/L, glycine buffer pH 3, NaCl 100 mM, 65°C.

T1 sequence (P02769 25-607): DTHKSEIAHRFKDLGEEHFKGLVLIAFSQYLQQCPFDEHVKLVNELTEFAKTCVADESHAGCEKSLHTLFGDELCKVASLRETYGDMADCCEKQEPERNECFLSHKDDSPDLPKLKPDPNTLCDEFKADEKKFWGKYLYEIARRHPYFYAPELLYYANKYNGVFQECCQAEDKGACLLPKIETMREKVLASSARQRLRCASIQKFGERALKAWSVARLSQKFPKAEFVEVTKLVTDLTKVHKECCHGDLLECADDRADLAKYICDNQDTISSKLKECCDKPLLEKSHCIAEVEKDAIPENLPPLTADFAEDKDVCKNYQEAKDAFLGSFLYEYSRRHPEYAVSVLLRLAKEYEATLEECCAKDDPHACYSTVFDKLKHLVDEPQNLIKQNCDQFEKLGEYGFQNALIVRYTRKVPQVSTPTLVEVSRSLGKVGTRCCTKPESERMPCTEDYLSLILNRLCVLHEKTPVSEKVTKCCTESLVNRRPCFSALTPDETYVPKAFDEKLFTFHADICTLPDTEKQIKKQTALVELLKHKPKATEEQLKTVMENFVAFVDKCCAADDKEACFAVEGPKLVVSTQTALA

One may read the IC50 as the concentration at which inhibition is half-maximal. Read a low IC50 as inhibition by little substance. Regarding `NCCNC(=O)CCC(=O)Nc1cccc2ccccc12` [A, N-(2-aminoethyl)-N'-1-naphthylsuccinamide], it took 6.34 µM to reach half-maximal inhibition in experiment [1] (IC50).

`CSC(=S)NCCNC(=O)CCC(=O)Nc1cccc2ccccc12` [B, methyl (2-{[4-(1-naphthylamino)-4-oxobutanoyl]amino}ethyl) dithiocarbamate]: the “% ThT fluorescence change at 100 μmol/L” value in experiment [2] was “chaperones A, C, D, B and E had a strong inhibitory effect on BSA fibrillation”.

As to `O=C(O)CCNC(=O)CCC(=O)Nc1cccc2ccccc12` [D, N-[4-(1-naphthylamino)-4-oxobutanoyl]-β-alanine], in experiment [1], the IC50 worked out at 6.37 µM.

`O=C(O)CCCCCNC(=O)CCC(=O)Nc1cccc2ccccc12` [E, 6-{[4-(1-naphthylamino)-4-oxobutanoyl]amino} hexanoic acid] came in with an IC50 in experiment [1] of 5.38 µM.

`O=C(CCC(=O)Nc1cccc2ccccc12)NCCNC(=O)CCC(=O)Nc1cccc2ccccc12` [F, N3,N3'-ethane-1,2-dyilbis(N1-1-naphthylsuccinamide)]: in experiment [1], 40 µM corresponded to half-maximal inhibition (IC50).

For `NCCCCNC(=O)CCC(=O)Nc1cccc2ccccc12` [G, N-(4-aminobutyl)-N'-1-naphthylsuccinamide], the “% ThT fluorescence change at 100 μmol/L” value in experiment [2] (aggregation enhancer) is “At the same concentrations, the chaperones F and G increased BSA fibrillation”.
